Our source for the RP-LC retention time values is the METLIN SMRT retention time set (Domingo-Almenara et al. 2019).

Molecules are shown by their SMILES.

A short description of the data set: gradient 5% acetonitrile 3 min, to 50% in 2 min, to 85% in 15 min, held 3 min, 100 µL/min. The conditions noted are these: column: Zorbax Extend-C18 2.1 x 50 mm; eluents: water / acetonitrile, 0.1% formic acid. In short, it runs like this:
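The mobile phases were water and acetonitrile, each with 0.1% formic acid, pumped at 100 μL/min through a Zorbax Extend-C18 column (2.1 × 50 mm, 1.8 μm). Pure standards were injected as mixtures of ~100 molecules and detected by a quadrupole time-of-flight mass spectrometer in positive and negative ionization mode. Retention time came from computationally picked adduct peaks, each inspected by hand.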
`Cc1ccc(-c2nc(N)n(S(=O)(=O)c3ccc(C)cc3)n2)cc1`: the RP-LC retention time was determined as 969 s.

With `COc1cccc(N2CCN(C(=O)C3CC(=O)N(c4n[nH]c5cccc(F)c45)C3)CC2)c1` (stereo unspecified), the RP-LC retention time was found to be 742 s.

With `COCCNC(=O)C(=O)Nc1ccc(Br)cc1`, the RP-LC retention time was 795 s.

Turning to `Cn1nc2n(c1=O)CCN(C(=O)Cc1ccsc1)CC2`, the RP-LC retention time was found to be 611 s.

Regarding `COc1cccc(NC(=O)Cn2nc3cc(C)nc(Nc4ccccc4C)n3c2=O)c1`, the RP-LC retention time turned out to be 1010 s.

For `CCc1sc(NC(=O)C2CC(=O)N(CCc3c[nH]c4ccc(Cl)cc34)C2)nc1-c1ccccc1` (stereo unspecified), the RP-LC retention time turned out to be 1060 s.

`COc1ccc(NC(=O)Cn2nc3nc(N4CCCC(C)C4)ccn3c2=O)cc1` (stereo unspecified) showed an RP-LC retention time of 734 s.

As to `Cc1ccc(CC(=O)N2CCN(c3cc(-c4ccc(C)cc4)ncn3)CC2)cc1`, the RP-LC retention time was 704 s.

Regarding `Cc1ccc(-c2noc(Cn3c(=O)n(-c4ccccc4C)c(=O)c4sccc43)n2)cc1C`, the RP-LC retention time is 1110 s.

Consider `O=C(Nc1cccc2ccc(-n3ccnc3)nc12)C1COc2ccccc2O1` (stereo unspecified), for which the RP-LC retention time is 674 s.

Take `Cc1noc(CNC(=O)C2CCN(C(=O)CSc3nc4ccccc4s3)CC2)n1`: the RP-LC retention time was found to be 665 s.

The compound `O=C(N1CC(Oc2ccc(-c3noc(-c4ccccc4)n3)cc2)C1)C1(c2ccccc2)CC1` displayed an RP-LC retention time of 1320 s.

In turn, `COCC1CN(C2CCC2)CC12CCN(C(=O)C(C)C)CC2` (stereo unspecified) returned an RP-LC retention time of 584 s.

`Cc1ccccc1-c1nc(-c2ccc3c(c2)oc(=O)n3C(C)C)no1` came in with an RP-LC retention time of 1270 s.

As to `Cc1ccc2c(c1)N(CCCC(=O)Nc1ccc(C)c(C)c1)C(=O)CO2`, the RP-LC retention time came out at 922 s.

In turn, `O=C(Cc1nc(-c2ccccn2)n[nH]1)Nc1ccc(Cl)cc1` had an RP-LC retention time of 666 s.

`Cc1nnc2cc(N3CCN(Cc4ccc(C(C)C)cc4)CC3)cnn12` yielded an RP-LC retention time of 613 s.

Regarding `CCOCCCNC(=O)c1csc(-c2ccnc(N3CCCC3)c2)n1`, the RP-LC retention time came to 592 s.

For the compound `CCSc1nnc(-c2nn(C)c3c2CN(S(=O)(=O)c2ccccc2Cl)CC3)n1CC`, the RP-LC retention time is 948 s.

As to `COC(=O)CN1C(=O)C2CCCN2C(=O)c2ccccc21` (stereo unspecified), the RP-LC retention time was 634 s.

In turn, `COc1cc(NC(=O)N2CCC(n3cnc4cccnc43)CC2)cc(OC)c1` gave an RP-LC retention time of 638 s.

As for `COc1ccc(-c2cc(N3CCC(NC(=O)c4ccccc4OC)C3)n[nH]2)cc1` (stereo unspecified), the RP-LC retention time worked out at 712 s.

`COc1ccc(NS(=O)(=O)c2cc3n(c2)CCN(CC(C)C)C3=O)cc1Cl` came in with an RP-LC retention time of 828 s.

Compound `Cc1cc(N2CCOCC2)nc(N2CCOCC2)n1` displayed an RP-LC retention time of 624 s.

The compound `COc1ccccc1CNc1ncc(C(=O)O)c(-c2ccncc2)n1` had an RP-LC retention time of 638 s.

The compound `CCOc1ccc(C(O)CN2CCN(c3ccccc3)CC2)cc1` (stereo unspecified) returned an RP-LC retention time of 653 s.

Consider `COC(=O)c1cc(OCC(=O)NCc2ccc3c(c2)OCO3)c2cc(Cl)ccc2n1`, for which the RP-LC retention time was found to be 827 s.

Consider `Cc1noc(C)c1CC(=O)N1CC(c2noc(C3CCCN3C)n2)C1` (stereo unspecified), for which the RP-LC retention time worked out at 594 s.

With `CC(C)CC(=O)Nc1cnc(-c2ccccc2)nc1`, the RP-LC retention time is 906 s.

`CCCCS(=O)(=O)N1CCC2(CC1)C(=O)N(C)C(=O)N2C` gave an RP-LC retention time of 671 s.

In turn, `COc1cccc(C(C)NC(=O)C2CCCN(c3nccnc3Sc3ccc(C)cc3)C2)c1` (stereo unspecified) returned an RP-LC retention time of 1120 s.

`COc1nn(C)cc1C(=O)Nc1cc(C(F)(F)F)ccc1Cl` showed an RP-LC retention time of 980 s.

For the compound `COc1cccc(C2Cn3nnc(-c4nc(-c5ccccc5Cl)no4)c3CO2)c1` (stereo unspecified), the RP-LC retention time was 1150 s.

`CCOC(=O)C1CCN(C(=O)c2sc3ncn(CC(=O)N4CCCCC4C)c(=O)c3c2C)CC1` (stereo unspecified) returned an RP-LC retention time of 776 s.

Take `CCCCOC(=O)c1ccc(NC(=O)c2c(O)c3cccc4c3n(c2=O)CC4)cc1`: the RP-LC retention time is 1070 s.

With `CC(C)(C)C(=O)N1CCC(C(=O)NCc2ccc3c(c2)OCO3)CC1`, the RP-LC retention time was 712 s.

For the compound `COc1ccc(NC(=O)c2nnc(COCC(=O)N3CCN(c4ccccn4)CC3)s2)cc1`, the RP-LC retention time was 610 s.

`CN(Cc1ccccc1)S(=O)(=O)c1cc2c3c(c1)CCC(=O)N3CCC2`: the RP-LC retention time turned out to be 926 s.

As to `O=C1Nc2cc(C(=O)N3CCN(Cc4ccc5c(c4)OCO5)CC3)ccc2N2CCCCC12` (stereo unspecified), the RP-LC retention time amounted to 624 s.

Consider `O=C(CCn1c(=O)sc2ccccc21)Nc1ccc(Br)cc1`, for which the RP-LC retention time is 884 s.

Compound `CCOc1nc(OCC)c2cnn(C)c2n1` registered an RP-LC retention time of 901 s.

`Cc1cc(=O)n(CC(=O)Nc2cccc(C(F)(F)F)c2)c(N2CCN(c3ccccc3)CC2)n1` showed an RP-LC retention time of 969 s.

As for `COc1ccc(S(=O)(=O)NCCc2cn(CC(C)C)c3ncccc23)cc1Cl`, the RP-LC retention time worked out at 962 s.

In turn, `COc1ccc(OC)c(NC(=O)NCCc2cn(C)c3ncccc23)c1` yielded an RP-LC retention time of 686 s.

Turning to `CCn1ncc(NC(=O)Cc2ccc(Cl)cc2)c(N2CCOCC2)c1=O`, the RP-LC retention time came out at 836 s.

In the case of `CCC1CN(C(=O)N2CCC(C(=O)NCCN3CCN(CC)CC3)CC2)c2ccccc2O1` (stereo unspecified), the RP-LC retention time is 617 s.

With `Cc1ccccc1-c1ccc(N2CCC(C(=O)NCc3ccco3)CC2)nn1`, the RP-LC retention time was found to be 605 s.

`CCCCn1cc(S(=O)(=O)Nc2ccc(F)cc2C)c2cccnc21`: the RP-LC retention time came out at 989 s.

As to `COc1ccc(NS(=O)(=O)c2c[nH]c3ncccc23)cc1Cl`, the RP-LC retention time was found to be 729 s.

Take `Cc1cc(C2CCCN2C(=O)Cc2c(F)cccc2Cl)no1` (stereo unspecified): the RP-LC retention time was 829 s.

The compound `CCC(=O)Nc1ccc(SCC(=O)Nc2ccc(F)c(Cl)c2)nn1` came in with an RP-LC retention time of 772 s.

`O=C(CN1CC=C(c2cnn(-c3ccc(F)cc3)c2)CC1)NC1CCCCC1` yielded an RP-LC retention time of 695 s.

`CCOc1ccccc1N1CCN(Cc2cc(C)[nH]n2)CC1` came in with an RP-LC retention time of 612 s.

Compound `CC(C)(C)c1ccc(C(=O)Nc2cc(-c3ccccn3)no2)cc1` registered an RP-LC retention time of 1020 s.

Turning to `CN1C(=O)c2cccn2CC1CNC(=O)c1[nH]nc2c1COc1ccccc1-2` (stereo unspecified), the RP-LC retention time came out at 685 s.

For the compound `Cc1ccc(CNC(=O)C2(C)CCCN(C(=O)Nc3ccc(Br)c(C)c3)C2)cc1` (stereo unspecified), the RP-LC retention time amounted to 1110 s.

Consider `O=C1NC2(CCN(C(=O)NCCc3ccccc3)CC2)Nc2c(Cl)cccc21`, for which the RP-LC retention time turned out to be 773 s.

The compound `COc1nn(C)cc1C(=O)Nc1ccc(C(=O)Nc2cccc(-c3csc(C)n3)c2)cc1` came in with an RP-LC retention time of 748 s.

As for `COc1ccc(-c2nc3ncccn3c2Nc2cc(C)cc(C)c2)cc1`, the RP-LC retention time came to 784 s.

`CCc1nc2cc(-c3noc(CNC(=O)Cc4ccccc4)n3)ccc2o1`: the RP-LC retention time is 819 s.

With `COC(=O)c1ccccc1Nc1c(-c2ccc(N3CCOCC3)cc2)nc2cnccn12`, the RP-LC retention time came out at 874 s.
